From patent US20240115571A1, “COMBINATION THERAPY FOR TREATING ABNORMAL CELL GROWTH” (priority 2021, published 2024)

Tested on: EGFR mutant H1975 osimertinib-resistant (Dell9/T790M/C797S) NSCLC model
Assay: H1975 osimertinib-resistant xenograft tumor mouse study
Type: in vivo, Balb/c nude mice
Settings: VS-6766 0.3 mg/kg PO QD; osimertinib 2.5 mg/kg QD
Experimental: EGFR mutant H1975 NSCLC tumor cells were obtained from ATCC, EGFR mutant H1975 osimertinib-resistant NSCLC tumor cells were generated by Wuxi AppTec, and Balb/c nude mice were obtained from Beijing Vital River Laboratory Animal Technology. Tumor challenge was initiated by subcutaneous inoculation of 5×10^6 tumor cell suspensions into the right flank of recipient mice.
Tumor sizes (mm^3) and body weights were measured 2 times per week for the duration of the study. At the time of routine monitoring, the animals were checked for any effects of tumor growth and treatments on normal behavior such as mobility, food and water consumption (by looking only), and body weight gain/loss, eye/hair matting and any other abnormal effect.

SMILES: CNS(=O)(=O)Nc1nccc(Cc2c(C)c3ccc(Oc4ncccn4)cc3oc2=O)c1F [VS-6766]
- survival compared to osimertinib single agent: increased
- tumor growth inhibition compared to osimertinib single agent: increased tumor growth inhibition
